Measured values published in the NIST ThermoML archive (doi:10.1021/je100693c).
Values joined by “and” are separate entries in the source; they are usually repeats but may differ in a detail not shown here. Equal entries are not always repeated.

Legend:
[1] = 101 kPa, Liquid, Vibrating tube method
[2] = excess molar enthalpy (molar enthalpy of mixing); xn = mol fraction of the nth substance listed; conditions: 101 kPa, Liquid
[3] = xn = mol fraction of the nth substance listed; conditions: 101 kPa, Liquid, Vibrating tube method

CCCCn1cc[n+](C)c1.F[B-](F)(F)F [1-butyl-3-methylimidazolium tetrafluoroborate]
[1]
Conditions | mass density [kg/m3]
283.15 K | 1213.3
293.15 K | 1205.9
303.15 K | 1198.6
313.15 K | 1191.4
323.15 K | 1184.4
333.15 K | 1177.4

OCC(F)(F)F [2,2,2-trifluoroethanol] + CCn1cc[n+](C)c1.F[B-](F)(F)F
Conditions | excess molar enthalpy [kcal/mol] | mass density [kg/m3]
[2], 298.15 K, x2 = 0.0555 | 0.0929 | –
[2], 298.15 K, x2 = 0.1114 | 0.15 | –
[2], 298.15 K, x2 = 0.1904 | 0.256 | –
[2], 298.15 K, x2 = 0.3199 | 0.288 | –
[2], 298.15 K, x2 = 0.4137 | 0.273 | –
[2], 298.15 K, x2 = 0.4847 | 0.25 | –
[2], 298.15 K, x2 = 0.5852 | 0.208 | –
[2], 298.15 K, x2 = 0.7016 | 0.155 | –
[2], 298.15 K, x2 = 0.79 | 0.112 | –
[2], 298.15 K, x2 = 0.9039 | 0.0506 | –
[2], 323.15 K, x2 = 0.0555 | 0.0535 | –
[2], 323.15 K, x2 = 0.1114 | 0.0933 | –
[2], 323.15 K, x2 = 0.1904 | 0.172 | –
[2], 323.15 K, x2 = 0.2477 | 0.181 | –
[2], 323.15 K, x2 = 0.3199 | 0.185 | –
[2], 323.15 K, x2 = 0.4137 | 0.171 | –
[2], 323.15 K, x2 = 0.4847 | 0.155 | –
[2], 323.15 K, x2 = 0.5852 | 0.126 | –
[2], 323.15 K, x2 = 0.7016 | 0.0908 | –
[2], 323.15 K, x2 = 0.79 | 0.0632 | –
[2], 323.15 K, x2 = 0.9216 | 0.0233 | –
[3], 293.14 K, x2 = 0 | – | 1389.7
[3], 293.14 K, x2 = 0.755 | – | 1299.6
[3], 293.15 K, x2 = 0.099 | – | 1373.3
[3], 293.16 K, x2 = 0.305 | – | 1340.6
[3], 293.17 K, x2 = 0.5164 | – | 1318.4
[3], 303.16 K, x2 = 0.5164 | – | 1308.9
[3], 303.17 K, x2 = 0.099 | – | 1359.1
[3], 303.17 K, x2 = 0.755 | – | 1291.3
[3], 303.18 K, x2 = 0.305 | – | 1329.4
[3], 303.19 K, x2 = 0 | – | 1372.4
[3], 313.15 K, x2 = 0 | – | 1354.8
[3], 313.15 K, x2 = 0.099 | – | 1344.7
[3], 313.16 K, x2 = 0.305 | – | 1318.4
[3], 313.16 K, x2 = 0.755 | – | 1282.9
[3], 313.19 K, x2 = 0.5164 | – | 1299.3
[3], 323.12 K, x2 = 0.099 | – | 1330.5
[3], 323.14 K, x2 = 0.5164 | – | 1290.2
[3], 323.15 K, x2 = 0 | – | 1336.6
[3], 323.15 K, x2 = 0.305 | – | 1307.3
[3], 323.2 K, x2 = 0.755 | – | 1274.7
[3], 333.14 K, x2 = 0.755 | – | 1266.8
[3], 333.15 K, x2 = 0 | – | 1317.8
[3], 333.15 K, x2 = 0.5164 | – | 1281.1
[3], 333.16 K, x2 = 0.305 | – | 1296.4
[3], 333.2 K, x2 = 0.099 | – | 1315.8

CCn1cc[n+](C)c1.F[B-](F)(F)F [1-ethyl-3-methylimidazolium tetrafluoroborate] + OCC(F)(F)F
[3], x1 = 1
Conditions | mass density [kg/m3]
293.1 K | 1284.3
303.11 K | 1276.5
313.15 K | 1269.2
323.14 K | 1261.8
333.23 K | 1254.6

OCC(F)(F)F [2,2,2-trifluoroethanol]
[1]
Conditions | mass density
283.15 K | 1408.2 kg/m3
293.14 K | 1389.7 kg/m3
293.15 K | 1391.1 kg/m3
303.15 K | 1373.8 kg/m3
303.19 K | 1372.4 kg/m3
313.15 K | 1356.1 kg/m3 and 1354.8 kg/m3
323.15 K | 1338 kg/m3 and 1336.6 kg/m3
333.15 K | 1317.8 kg/m3 and 1319.1 kg/m3

CCCCn1cc[n+](C)c1.F[B-](F)(F)F [1-butyl-3-methylimidazolium tetrafluoroborate] + OCC(F)(F)F
[3], x1 = 1
Conditions | mass density [kg/m3]
283.15 K | 1213.3
293.15 K | 1205.9
303.15 K | 1198.6
313.15 K | 1191.4
323.15 K | 1184.4
333.15 K | 1177.4

CCn1cc[n+](C)c1.F[B-](F)(F)F [1-ethyl-3-methylimidazolium tetrafluoroborate]
[1]
Conditions | mass density [kg/m3]
293.1 K | 1284.3
303.11 K | 1276.5
313.15 K | 1269.2
323.14 K | 1261.8
333.23 K | 1254.6
